According to patent US11524948B2, “Prodrugs of alpha-ketoglutarate, alpha-ketobutyrate, alpha-ketoisovalerate, and alpha-ketoisohexanoate, and uses thereof” (The Regents of the University of California, priority 2018, dated 2022):
“Also recorded” adds a separate entry of the source.

Legend:
[1] = system: AMPK signaling pathway; experiment: Western blot of AMPK signaling in H9C2 rat cardiomyocytes; type: cell-based; details: H9C2 cells; for activation of AMPK signaling pathway (phosphorylation of AMPK targets ACC (S79) and ULK1 (S555)): western blot, FIGS. 2A, 2B; for activation of AMPK signaling pathway (phosphorylation of AMPK targets ACC (S79) and ULK1 (S555)) / time course of AMPK activation: 2F; for time course of AMPK activation: 15 min to 8 hr, FIGS. 2C, 2E; for activation of AMPK, dose-response: FIG. 2D
Procedure: (§1) H9C2 rat cardiomyocyte cells were grown in DMEM media (ATCC #30-2002) supplemented with 10% FBS. Stock solutions of MJX series compounds were prepared in DMSO, while the stock solution of α-ketobutyrate was prepared in dH2O. Cells were seeded in the afternoon at 70-80% confluency and the next morning treated with the indicated concentrations of compounds for the indicated times. Cells were then washed with ice-cold PBS and immediately lysed on ice with RIPA buffer. Lysates were clarified at 18,000 g at 4° C., the supernatants transferred to new tubes, mixed with […] of 5×SDS-PAGE loading buffer, and heated for 10 minutes at 70° C. Lysates were then separated by SDS-PAGE using 4-12% Bis-Tris gels (Life Technologies) and transferred to PVDF membranes (Millipore) for western blotting analysis. All antibodies were purchased from Cell Signaling.

[2] = system: Caenorhabditis elegans; experiment: Lifespan of N2 wildtype C. elegans on NGM treatment plates containing compound; type: in vivo; design: mean lifespan: unit not given here; details: for % increase (mean lifespan): vs DMSO; for effect on C. elegans lifespan: FIGS. 1A-1C, result in words
Procedure: The anti-aging effects of MJX001-MJX005 were tested in the nematode Caenorhabditis elegans. Worms of the N2 wildtype strain of C. elegans were age-synchronized by performing either a timed egg lay or an egg preparation (mix <100 gravid worms in 70 μl M9 buffer, 25 μl bleach and 5 μl 10 N NaOH). Once the worms reached day 1 of adulthood, they were picked onto NGM treatment plates containing 1.5% dimethyl sulfoxide (DMSO; Sigma D8418), 49.5 μM 5-fluoro-2′-deoxyuridine (FUDR, Sigma F0503), and either […] (Sigma K401) or one of the MJX series test compounds. All plates were adjusted to pH 6.0 (i.e., the same pH as the control plates) if necessary by the addition of NaOH. Once dry, the plates were seeded with OP50 E. coli as the C. elegans food source. […] Worms were moved to new plates every 4 days. All worms were maintained in a single humidified, temperature-controlled incubator at 20° C. Lifespan curves were generated and statistical analyses performed.

[3] = system: mTORC1; experiment: Western blot of mTORC1 signaling in H9C2 rat cardiomyocytes; type: cell-based; details: H9C2 cells; for mTORC1 signaling (phosphorylation of mTORC1 targets S6K (T389), 4E-BP1 (S65), ULK1 (S757)): western blot, FIGS. 2A, 2B, 2C, 2F
Procedure: as §1

[4] = system: H9C2 Cells; experiment: [U-13C6]glucose tracing of metabolites in H9C2 cells (LC-MS); type: cell-based, rat; details: 24 h, FIG. 4
Procedure: To evaluate the metabolic pathways in use, H9C2 Cells were cultured with designated compounds and medium containing [U-^13C6]glucose for 24 h. Metabolites were extracted for LC-MS detection.

[5] = system: C57BL/6 mice; experiment: Hair regrowth in shaved C57BL/6 mice, topical application; type: in vivo, mouse
Procedure: The effects of the compounds on mouse models were evaluated. […] Mouse dorsal hair was shaved by trimmer on week 7 and MJX002 was dissolved in Transdermal Gel at 16 mM and applied on the dorsal skin every other day. Mice were monitored for the appearance of skin pigmentation, which signals the initiation of anagen. […] (FIG. 7)

[6] = system: mTOR signaling; experiment: Western blot of mTOR signaling in H9C2 rat cardiomyocytes; type: cell-based; details: H9C2 cells; for time course of inhibition of mTOR signaling: 15 min to 8 hr, FIGS. 2C, 2E, 2F; for inhibition of mTOR signaling, dose-response: FIG. 2D
Procedure: as §1

[7] = system: H9C2 Cells; experiment: Proliferation of H9C2 cells; type: cell-based, rat; details: FIGS. 6A & 6B
[8] = system: mTORC2; experiment: Western blot of mTORC2 signaling in H9C2 rat cardiomyocytes; type: cell-based; details: H9C2 cells, FIGS. 2C; for time course of inhibition of mTORC2 (decreased phosphorylation of Akt (S473)): 2E; for mTORC2 activity (phosphorylation of Akt (S473)): 2F
Procedure: as §1

[9] = system: C57BL/6 mice; details: stated as known; cited from earlier work
[10] = 1 mM, FIG. 1C experiment, DMSO control 14.8
[11] = 2 mM, FIG. 1C experiment, DMSO control 14.8
[12] = 4 mM, FIG. 1C experiment, DMSO control 14.8
[13] = 4 mM, FIG. 1A experiment, DMSO control 11.7
[14] = 2 mM, FIG. 1B experiment, DMSO control 15.3
[15] = 4 mM, FIG. 1B experiment, DMSO control 15.3
[16] = after only 15 minutes treatment, FIG. 2C
[17] = 4 mM, FIG. 8 experiment, DMSO control 15.3

Molecule: C/C=C(\OC(C)=O)C(=O)OCC [MJX001]
- activation of AMPK signaling pathway (phosphorylation of AMPK targets ACC (S79) and ULK1 (S555)) [1]: activate the AMPK signaling pathway
- mean lifespan [2, 10]: 12.9
- % increase (mean lifespan) ([2]; 1 mM, FIG. 1C experiment): −12.9%
- mean lifespan [2, 11]: 11.5
- % increase (mean lifespan) ([2]; 2 mM, FIG. 1C experiment): −22.4%
- mean lifespan [2, 12]: 11.1
- % increase (mean lifespan) ([2]; 4 mM, FIG. 1C experiment): −24.8%
- effect on C. elegans lifespan [2]: decreased C. elegans lifespan
- mTORC1 signaling (phosphorylation of mTORC1 targets S6K (T389), 4E-BP1 (S65), ULK1 (S757)) [3]: no significant effect

Molecule: CCOC(=O)C(CC)(OCC)OC(C)=O (stereo not shown) [MJX002]
- activation of AMPK signaling pathway (phosphorylation of AMPK targets ACC (S79) and ULK1 (S555)) [1]: activate the AMPK signaling pathway
- M2 citrate using [U-13C6]glucose as a tracer [4]: decreased M2 citrate
- mean lifespan ([2]; 100 μM, FIG. 1A experiment, DMSO control 11.7): 11.9
- % increase (mean lifespan) ([2]; 100 μM, FIG. 1A experiment): 1.9%
- mean lifespan ([2]; 300 μM, FIG. 1A experiment, DMSO control 11.7): 13.2
- % increase (mean lifespan) ([2]; 300 μM, FIG. 1A experiment): 13.0%
- mean lifespan ([2]; 1 mM, FIG. 1A experiment, DMSO control 11.7): 12.2
- % increase (mean lifespan) ([2]; 1 mM, FIG. 1A experiment): 4.2%
- mean lifespan [2, 13]: 16.4
- % increase (mean lifespan) ([2]; 4 mM, FIG. 1A experiment): 40.0%
- effect on C. elegans lifespan [2]: dose-dependent increases in lifespan
- mTORC1 signaling (phosphorylation of mTORC1 targets S6K (T389), 4E-BP1 (S65), ULK1 (S757)) [3]: no significant effect
- hair regrowth ([5]; 6 week old C57BL/6 mice, 16 mM in Transdermal Gel on dorsal skin every other day): stimulates hair regrowth
- skin pigmentation and hair growth ([5]; C57BL/6 mice, 16 mM topical every other day, after 40 days, FIG. 7): accelerated pigmentation and hair growth

Molecule: C/C=C1\OC(C)OC1=O (stereo not shown) [MJX003]
- phosphorylation of T172 in AMPK ([1]; FIG. 2A): Increased phosphorylation
- activation of AMPK signaling pathway (phosphorylation of AMPK targets ACC (S79) and ULK1 (S555)) [1]: activate the AMPK signaling pathway
- mean lifespan [2, 10]: 14.8
- % increase (mean lifespan) ([2]; 1 mM, FIG. 1C experiment): −0.2%
- mean lifespan [2, 11]: 12.5
- % increase (mean lifespan) ([2]; 2 mM, FIG. 1C experiment): −15.3%
- mean lifespan [2, 12]: 12.9
- % increase (mean lifespan) ([2]; 4 mM, FIG. 1C experiment): −12.7%
- effect on C. elegans lifespan [2]: decreased C. elegans lifespan
- mTORC1 signaling (phosphorylation of mTORC1 targets S6K (T389), 4E-BP1 (S65), ULK1 (S757)) [3]: no significant effect

Molecule: C/C=c1\oc(=O)/c(=C/C)oc1=O [MJX004]
- time course of AMPK activation [1]: less potent but more prolonged
- activation of AMPK ([1]; at 4 hr, FIG. 2E): strong activation of AMPK
- activation of AMPK signaling pathway (phosphorylation of AMPK targets ACC (S79) and ULK1 (S555)) [1]: activate the AMPK pathway
- M2 citrate using [U-13C6]glucose as a tracer [4]: decreased M2 citrate
- mean lifespan ([2]; 1 mM, FIG. 1B experiment, DMSO control 15.3): 19.7
- % increase (mean lifespan) ([2]; 1 mM, FIG. 1B experiment): 28.7%
- mean lifespan [2, 14]: 20.0
- % increase (mean lifespan) ([2]; 2 mM, FIG. 1B experiment): 30.9%
- mean lifespan [2, 15]: 21.1
- % increase (mean lifespan) ([2]; 4 mM, FIG. 1B experiment): 38.0%
- effect on C. elegans lifespan [2]: dose-dependent increases in lifespan
- inhibition of mTORC1 ([3]; at 4 and 8 hr, FIG. 2E): sustained inhibition of mTORC1
- mTORC1 signaling (phosphorylation of mTORC1 targets S6K (T389), 4E-BP1 (S65), ULK1 (S757)) [3]: inhibited mTORC1 signaling
- time course of inhibition of mTOR signaling [6]: less potent but more prolonged; also recorded: more prolonged effect on mTOR signaling
- effect on proliferation (inhibition), rank order [7]: strongest effect on proliferation
- time course of inhibition of mTORC2 (decreased phosphorylation of Akt (S473)) [8]: strongest after just 15 and 30 minutes treatment, but recovered to normal levels by 2 hr and beyond

Molecule: C/C=C1\OC(CC)(C(=O)OCC)OC1=O (stereo not shown) [MJX005]
- activation of AMPK compared with α-ketobutyrate [1]: more potent activation of AMPK than α-ketobutyrate
- activation of AMPK, dose-response ([1]; 0.8 mM or lower): no significant effect
- activation of AMPK, dose-response ([1]; 1.6 mM): modest effect
- activation of AMPK, dose-response ([1]; 3.2 mM): strong effect
- time course of AMPK activation [1]: greatly diminished by 2 hr and largely absent at 4 hr and 8 hr
- activation of AMPK [1, 16]: strong activation of AMPK
- activation of AMPK signaling pathway (phosphorylation of AMPK targets ACC (S79) and ULK1 (S555)) [1]: activate the AMPK pathway
- mean lifespan [2, 14]: 18.2
- % increase (mean lifespan) ([2]; 2 mM, FIG. 1B experiment): 19.1%
- mean lifespan [2, 15]: 19.6
- % increase (mean lifespan) ([2]; 4 mM, FIG. 1B experiment): 27.7%
- effect on C. elegans lifespan [2]: dose-dependent increases in lifespan
- mTORC1 signaling (phosphorylation of mTORC1 targets S6K (T389), 4E-BP1 (S65), ULK1 (S757)) [3]: inhibited mTORC1 signaling; also recorded: inhibits both mTORC1 and mTORC2 activity
- inhibition of mTOR signaling, dose-response ([6]; 0.8 mM or lower): no significant effect
- inhibition of mTOR signaling, dose-response ([6]; 1.6 mM): modest effect
- inhibition of mTOR signaling, dose-response ([6]; 3.2 mM): strong effect
- time course of inhibition of mTOR signaling [6]: greatly diminished by 2 hr and largely absent at 4 hr and 8 hr; also recorded: only inhibited mTOR signaling transiently
- inhibition of mTOR signaling [6, 16]: inhibition of mTOR signaling
- time course of inhibition of mTORC2 (decreased phosphorylation of Akt (S473)) [8]: strongest after just 15 and 30 minutes treatment, but recovered to normal levels by 2 hr and beyond
- mTORC2 activity (phosphorylation of Akt (S473)) [8]: inhibits both mTORC1 and mTORC2 activity

Molecule: C/C=C1\OC(CCC(=O)OCC)(C(=O)OCC)OC1=O (stereo not shown) [MJX006]
- time course of AMPK activation [1]: highest at 15 and 30 minutes, is weaker but still evident at 1 hour, and has largely returned to baseline by 2 hours
- activation of AMPK signaling pathway (phosphorylation of AMPK targets ACC (S79) and ULK1 (S555)) [1]: rapidly promote AMPK activity
- mean lifespan ([2]; 1 mM, FIG. 8 experiment, DMSO control 15.3): 16.2
- % increase (mean lifespan) ([2]; 1 mM, FIG. 8 experiment): 6.3%
- mean lifespan ([2]; 2 mM, FIG. 8 experiment, DMSO control 15.3): 19.0
- % increase (mean lifespan) ([2]; 2 mM, FIG. 8 experiment): 24.2%
- mean lifespan [2, 17]: 17.4
- % increase (mean lifespan) ([2]; 4 mM, FIG. 8 experiment): 13.9%
- N2 C. elegans lifespan ([2]; all three tested doses (1, 2, 4 mM), FIG. 8, result in words): extended significantly
- mTORC1 signaling (phosphorylation of mTORC1 targets S6K (T389), 4E-BP1 (S65), ULK1 (S757)) [3]: inhibit mTORC1 and mTORC2 signaling
- time course of inhibition of mTOR signaling [6]: exhibited similar kinetics; also recorded: only inhibited mTOR signaling transiently
- mTORC2 activity (phosphorylation of Akt (S473)) [8]: inhibit mTORC1 and mTORC2 signaling

Molecule: α-ketobutyric acid (2-oxobutanoic acid) [aKB, reference compound]
- mean lifespan [2, 13]: 17.7
- % increase (mean lifespan) ([2]; 4 mM, FIG. 1A experiment): 51.0%
- mean lifespan [2, 15]: 20.4
- % increase (mean lifespan) ([2]; 4 mM, FIG. 1B experiment): 33.3%
- mean lifespan [2, 12]: 19.7
- % increase (mean lifespan) ([2]; 4 mM, FIG. 1C experiment): 33.3%
- mean lifespan [2, 17]: 19.1
- % increase (mean lifespan) ([2]; 4 mM, FIG. 8 experiment): 24.6%
- hair loss in old C57BL/6 mice [9]: prevents hair loss
- hair regrowth in mice [9]: stimulates hair regrowth
